Test results: patent US11479568B2, “Silacrown ethers, pharmaceutical compositions thereof, and therapeutic applications thereof” (priority 2020, dated 2022)

Experiments:
[1] = system: vascular smooth muscle tissue; experiment: Vascular tissue contractile response (muscle bath, KCl-contracted tissue); assay type: cell-based, white New Zealand rabbits and human; settings: cumulative 10^-8 to 10^-5 M, tissue contracted with KCl, FIG. 1 and FIG. 2
Method: Ginsburg (Stanford University Medical School), crown and silacrown ethers in concentrations of 10^−8M, 10^−7 M, 10^−6 M and 10^−5M were prepared fresh daily in deionized water. The 10^−5 M concentrations were used for the preliminary screening of the ionophores for vasoactivity to determine the most promising candidates. The procedures utilized in the removal and preparation of vascular smooth muscle tissue obtained from aorta of white New Zealand rabbits and human hearts from transplant patients are well established and have been successfully utilized by the personnel at Stanford University Medical School (Cardiology Department). A computer interfaced muscle bath system designed by Dr. Robert Ginsburg and associates was used to carry out the experimental procedure. The chambers (32 per system) were filled with standard Tyrode solution (chambers maintain a constant volume of 100 ml) and aerated continuously. The tissues were placed in the chambers and connected to stainless steel hooks to a linear motion transducer and preequilibrated for 1.5 hours at a constant temperature of 37° C. (a tension of 0.5 g was maintained during the pre-equilibration period).
A starting tension of approximately 0.5 g was achieved before adding the agonist ([…] KCl final concentration) to contract the tissues. After the contractions leveled off, the tensions were recorded before and after the crown ethers were added. To test for tissue integrity, 10^−5 M nitroglycerin was added at the end of the experiment (some relaxation should be observed), and the tension was recorded. […]
Accumulative dose response curves were obtained by repeating the previous procedure on both human and rabbit vascular smooth muscle tissues as previously described. However, crown ether concentrations of 10^−8 M, 10^−7 M, 10^−6 M and 10^−5 M were added accumulatively instead of only one dose (10^−5 M was used to screen the crowns) and the tensions recorded for each concentration (before the next concentration of ionophore was added, the contractile tension of the tissue had leveled off).

mice = settings: reported by Gad et al.; cited from earlier work
[2] = system: adult albino Sprague-Dawley rats; experiment: Acute oral toxicity study in rats (GLP); assay type: in vivo, rat
Description: (§1) No mortality was observed during the study. […] Animals were asymptomatic by day 3. […] Thus, crown ethers and silacrown ethers of similar cavity size behave similarly, but the silacrown ethers have dramatically lower toxicity.

[3] = Acute oral toxicity study in rats (GLP); assay type: in vivo, rat; settings: rat, in vivo, adult albino Sprague-Dawley rats
Description: as §1

Row | Molecule | contractile response of vascular smooth muscle tissue (relaxation) [1] | LD50 acute oral toxicity (mice) [mg/kg] | also measured
1 | 12-crown-6 [Example 12-crown-6] | similar | – | –
2 | C[Si]1(C)OCCOCCOCCO1 [1,1-dimethylsila-11-crown-4] | similar | – | –
3 | C1COCCOCCOCCO1 [Example 12-crown-4, 12-crown-4] | – | 2830 | –
4 | C1COCCOCCOCCOCCO1 [Example 15-crown-5, 15-crown-5] | – | 2100 | –
5 | C1CCC2OCCOCCOC3CCCCC3OCCOCCOC2C1 (stereo not drawn) [dicyclohexano-18-crown-6] | – | 176 | –
6 | C1CCC2OCCOCCOCCOC3CCCCC3OCCOCCOCCOC2C1 (stereo not drawn) [dicyclohexano-24-crown-8] | – | 75 | –
7 | C[Si]1(C)OCCOCCOCCOCCO1 [dimethylsila-14-crown-5] | – | – | acute oral LD50 [2]: 9,900 mg/kg
8 | C[Si]1(C)OCCOCCOCCOC2CCCCC2O1 (stereo not drawn) [dimethylsila-14-cyclohexylcrown-5, Dimethylsila-14-cyclohexylcrown-5] | – | – | LD50 [3]: > 5000 mg/kg
9 | C[Si]1(C)OCCOCCOCCOCCOCCO1 [dimethylsila-17-crown-6] | similar | – | –
